Assay results reported in US8163804B2 (priority 2005, dated 2012).
Like-named read-outs stand apart in the source and are kept apart here.

How the values were obtained:
[1] = tested on: Rice Blast (Pyricularia oryzae); assay type: in vivo; conditions: in vivo
[2] = tested on: Rice Leafroller (Cnaphalocrocis medinalis); assay: Control test on rice leafroller, nursery box application of paddy rice, infected leaf rate after 50 days; assay type: in vivo; conditions: 5 gai/box; 50 days after transplantation
Experimental: (§1) Control Test on Small Brown Planthopper (Laodelphax striatellus) and Rice Leafroller (Cnaphalocrocis medinalis) on Nursery Box Application of Paddy Rice
(§2) Rice (cultivar: Nihonbare) cultured in a nursery box was treated with 50 g of a granule formulation per box, and then transplanted to the rice field. For the control effect against Laodelphax striatellus, the number of parasitic insects was examined for 30 stumps per plot after 40 days and 60 days from the transplantation. In addition, for the control effect against Cnaphalocrocis medinalis, the number of infected leaves was examined for 100 stumps per plot after 50 days from the transplantation, and the infected leaf rate was calculated. In the Table, gai represents the amount of active ingredients (g).

[3] = tested on: 2-spotted Spider Mite (Tetranychus urticae); assay: Insecticidal test on 2-spotted spider mite, kidney bean leaf disc with eggs, hatchability of larvae after 6 days; assay type: in vivo; conditions: 50 ppm; 6 days after spraying
Experimental: Insecticidal Test on 2-spotted Spider Mite (Tetranychus urticae)
A plastic cup having a diameter of 8 cm was filled with water and covered by a lid with a hole having a diameter of 1 cm. Absorbent cotton was put on the top of the lid and dropped into water from the lid such that the absorbent cotton was always in a wet state due to a capillary phenomenon. A leaf disc having a diameter of 2 cm was prepared with primary leaves of kidney beans (cultivar: Green top) and placed on the aforementioned absorbent cotton. 4 adult female insects of Tetranychus urticae were inoculated thereon. Next day, the adult female insects were removed, and then the number of insect egg was examined. A liquid chemical which was prepared to the prescribed concentration was sprayed by using a vertical sprayer. After spraying, the resulting cup was allowed to stand in an isothermal chamber maintained at 25 degree centigrade. After 6 days from spraying, the number of hatched larvae that survived on the leaf disc was examined and the hatchability of larvae was calculated (two replications of one concentration per chemical).

[4] = tested on: Green Peach Aphid (Myzus persicae); assay type: in vivo; conditions: 3 ppm, foliar spray on eggplant, 5 days after spraying
[5] = tested on: Small Brown Planthopper (Laodelphax striatellus); assay: Insecticidal test on small brown planthopper, sprayed rice seedlings, mortality after 6 days; assay type: in vivo; conditions: 3 ppm, sprayed rice seedlings, 6 days after treatment
Experimental: Insecticidal Test on Small Brown Planthopper (Laodelphax striatellus)
A liquid chemical which was diluted and prepared to the prescribed concentration was sprayed on rice seedlings (cultivar: koshihikari), air-dried, and then 10 three-stage insects of Laodelphax striatellus were put into a glass test tube having a diameter of 3 cm and a height of 10 cm along with the seedlings. The test tube was cotton plugged. After 6 days from the treatment, the number of surviving insects was examined and the mortality was calculated (two replications of 10 insects per plot).

[6] = tested on: Rice Striped Stem Borer (Chilo suppressalis); conditions: 5 gai/box
[7] = tested on: Small Brown Planthopper (Laodelphax striatellus); assay: Control test on small brown planthopper, nursery box application of paddy rice, number of parasitic insects after 40 and 60 days; assay type: in vivo; conditions: 5 gai/box
Experimental: as §1, §2

[8] = tested on: Resistant Cotton Melon Aphid (Aphis gossypii); assay type: in vivo; conditions: 3 ppm, foliar spray on cucumber, 5 days after spraying
[9] = tested on: Tiger Moth (Trichoplusia ni); assay: Insecticidal test on tiger moth, cabbage leaf dip, mortality after 6 days; assay type: in vivo; conditions: 0.5 ppm; 6 days after treatment
Experimental: Insecticidal Test on Tiger Moth (Trichoplusia ni)
Cut leaves of cabbages (cultivar: shiki-kaku) were immersed in a liquid chemical which was diluted and prepared to the prescribed concentration for 30 seconds, air-dried, and then put into a plastic vessel having a diameter of 9 cm. Each of 10 second-stage insects of Trichoplusia ni was inoculated and the resulting vessel was allowed to stand in an isothermal chamber maintained at 25 degree centigrade. After 6 days from the treatment, the number of surviving insects was examined and the mortality was calculated (two replications of 10 insects per plot).

[10] = tested on: Rice Blast (Pyricularia oryzae); assay type: in vivo
[11] = tested on: Common Straight Swift Butterfly (Parnara guttata); assay: Control test on common straight swift butterfly of paddy rice, powder spray, number of insects after 20 days (Test Example 8); assay type: in vivo; conditions: 20 days after spraying
[12] = tested on: Oriental Fruit Moth (Grapholita molesta); assay: Control test on oriental fruit moth of pear, spray, rate of infected fruit after 40 days; assay type: in vivo; conditions: 40 days after spraying
Experimental: (§3) Control Test on Oriental Fruit Moth (Grapholita molesta) and Scab (Venturia nashicola) of Pear
(§4) A liquid chemical which was prepared to the prescribed concentration was sufficiently sprayed on 17-year-old pears (cultivar: Hosui) (early June). After 40 days from spraying, the number of infected fruits due to Grapholita molesta was examined for all fruit in the plot, and the rate of infected fruit was calculated. Furthermore, after 14 days from spraying, infection of Venturia nashicola was examined by the degrees for optional 200 leaves in the plot and the severity index was calculated according to the following equation. Severity index=Z(number of infected leaves by the degrees×index)×100/(number of examined leaves×5)

[13] = tested on: Cucumber Moth (Diaphania indica); assay: Insecticidal test on cucumber moth, sprayed cucumber leaves, mortality; assay type: in vivo; conditions: for Diaphania indica Mortality (%): 10 ppm
Experimental: (§5) Insecticidal Test on Cucumber Moth (Diaphania indica) and Control Test on Powdery Mildew (Sphaerotheca fuliginea) of Cucumbers
(§6) A liquid chemical which was prepared to the prescribed concentration was sufficiently sprayed on cucumbers (cultivar: sagami-hanpaku) cultured in a greenhouse. After 7 days from spraying, leaves were cut off and put into a plastic cup (diameter: 10 cm, height: 10 cm) along with 5 of second-stage larvae of Diaphania indica, and the mortality was examined 4 days thereafter. Furthermore, 1 day after spraying, the leaves of cucumbers which were previously arranged to be infected by pathogen were uniformly wiped with Sphaerotheca fuliginea thereon using a paintbrush for inoculation and examined after 10 days thereafter. The area occupied by lesion per leaf of cucumber was examined in accordance with the following index, and the control value was calculated from the average severity index of each plot according to the following equation (two replications).

[14] = tested on: Powdery Mildew (Sphaerotheca fuliginea); assay: Control test on powdery mildew of cucumbers, spray, control value from severity index; assay type: in vivo
Experimental: as §5, §6
Severity Index • 0: No lesion • 1: Lesion area was not more than 5% • 2: Lesion area was from 6 to 25% • 3: Lesion area was from 26 to 50% • 4: Lesion area was not less than 51% Control Value=(1−average severity in the treated plot/average severity in the untreated plot)×100

[15] = tested on: Scab (Venturia nashicola); assay: Control test on scab of pear, spray, severity index after 14 days; assay type: in vivo; conditions: 14 days after spraying
Experimental: as §3, §4

[16] = tested on: Common Straight Swift Butterfly (Parnara guttata); assay: Control test on common straight swift butterfly of paddy rice, powder spray, number of insects after 20 days (Test Example 9); assay type: in vivo; conditions: 20 gai/10a; 20 days after spraying
Source text: (§7) Control Test on Common Straight Swift Butterfly (Parnara guttata) and Sheath Blight (Rhizoctonia solani) of Paddy Rice
(§8) A powder of a prescribed amount was sprayed on rice (cultivar: koshihikari) after 70 days from the transplantation (middle of May) Leaves on which Parnara guttata was parasitic before spraying were eliminated. After 20 days from spraying, the number of insects was examined for 100 stumps in each plot. Furthermore, 7 days before spraying, Rhizoctonia solani cultured on a bran medium was inoculated into the base of the plant. After 30 days from spraying, the number of infected stumps was examined for 100 stumps in each plot and the rate of infected stumps was calculated. In the Table, gai represents the amount of active ingredients (g).

[17] = tested on: Clubroot (Plasmodiophora brassicae); assay: Control test on clubroot of cabbage, soil treatment, control value after 60 days; assay type: in vivo; conditions: 60 days after treatment
Experimental: (§9) Control Test on Turnip Moth (Agrotis segetum) and Clubroot (Plasmodiophora brassicae) of Cabbage due to Soil Treatment
(§10) A powder in a prescribed amount was mixed to soil and cabbages (cultivar: shiki-kaku) cultured on a cell medium were planted out. After 7 days from the treatment, the number of infected stumps due to Agrotis segetum was examined and the rate of infected stumps was calculated. Furthermore, after 60 days from the treatment, stumps were picked out, and lesion formation of Plasmodiophora brassicase was examined according to the degrees of severity. The control value was calculated from the average severity index of each plot according to the following equation. In the Table, gai represents the amount of active ingredients (g).
Severity Index • 0: No clubroot attached • 1: Clubroot was attached at a portion of from 1 to 25% of the whole root • 2: Clubroot was attached at a portion of from 25 to 50% of the whole root • 3: Clubroot was attached at a portion of from 50 to 75% of the whole root • 4: Clubroot was attached at a portion of from 75% or more of the whole root Control Value=(1−average severity in the treated plot/average severity in the untreated plot)×100

[18] = tested on: Sheath Blight (Rhizoctonia solani); assay: Control test on sheath blight of paddy rice, powder spray, rate of infected stumps after 30 days; assay type: in vivo; conditions: 20 gai/10a; 30 days after spraying
Source text: as §7, §8

[19] = tested on: Turnip Moth (Agrotis segetum); assay: Control test on turnip moth of cabbage, soil treatment, rate of infected stumps after 7 days; assay type: in vivo; conditions: 7 days after treatment
Experimental: as §9, §10

Cc1cc(C(F)(C(F)(F)F)C(F)(F)F)cc(C)c1NC(=O)c1cccc(NC(=O)c2cccnc2Cl)c1F [compound 639]
Pyricularia oryzae Control value [1]: 3 | Cnaphalocrocis medinalis Infected leaf rate (%) [2]: 0.39% | Hatchability of larvae (%) [3]: 82% | Control rate (%) [4]: 10% | Mortality (%) [5]: 0% | Chilo suppressalis Mortality (%) [6]: 90% | Laodelphax striatellus Number of parasitic insects/30 stumps ([7]; 40 days): 65 insects/30 stumps | Laodelphax striatellus Number of parasitic insects/30 stumps ([7]; 60 days): 120 insects/30 stumps | Control rate (%) [8]: 12% | Mortality (%) [9]: 80%

C[C@H]1O[C@H](O[C@H]2[C@H](O)[C@@H](O)[C@@H](O)[C@H](O)[C@@H]2O)[C@@H](N)C[C@@H]1NC(=N)C(=O)O [kasugamycin]
Pyricularia oryzae Control value ([10]; 12 gai/10a, panicle blast, 30 days after spraying): 91 | Number (insects/100 stumps) ([11]; 12 gai/10a): 162 insects/100 stumps

CC(C)CC(C)c1sccc1NC(=O)c1cn(C)nc1C(F)(F)F (stereo not drawn) [penthiopyrad]
Grapholita molesta Infected fruit rate (%) ([12]; 75 ppm): 19.8% | mortality at 3.15 ppm ([13]; Diaphania indica, 3.15 ppm): 0% | Sphaerotheca fuliginea Control value ([14]; 3.15 ppm): 95 | Venturia nashicola Severity index ([15]; 75 ppm): 3.7

O=C1OCc2c(Cl)c(Cl)c(Cl)c(Cl)c21 [fthalide]
Pyricularia oryzae Control value ([10]; 100 gai/10a, panicle blast, 30 days after spraying): 90 | Number (insects/100 stumps) ([11]; 100 gai/10a): 150 insects/100 stumps

Cc1cc(C(F)(C(F)(F)F)C(F)(F)F)cc(C)c1NC(=O)c1cccc(N(C)C(=O)c2cccnc2F)c1F [Compound 1246]
Pyricularia oryzae Control value [1]: 0 | Cnaphalocrocis medinalis Infected leaf rate (%) [2]: 0.28% | Chilo suppressalis Mortality (%) [6]: 95% | Laodelphax striatellus Number of parasitic insects/30 stumps ([7]; 40 days): 77 insects/30 stumps | Laodelphax striatellus Number of parasitic insects/30 stumps ([7]; 60 days): 137 insects/30 stumps

O=C(Nc1cccc(C(=O)Nc2c(Br)cc(C(F)(C(F)(F)F)C(F)(F)F)cc2SC(F)(F)F)c1)c1ccccc1 [Compound 210]
Grapholita molesta Infected fruit rate (%) ([12]; 50 ppm): 1.7% | Number of insects (number/100 stumps) [16]: 1 number/100 stumps | Plasmodiophora brassicae Control value ([17]; 100 gai/10a): 0 | Diaphania indica Mortality (%) [13]: 95% | Hatchability of larvae (%) [3]: 80% | Pyricularia oryzae Control value ([10]; in vivo): 3 | Control rate (%) [4]: 7% | Mortality (%) [5]: 15% | Rate of infected stumps (%) [18]: 98% | Sphaerotheca fuliginea Control value ([14]; 10 ppm): 0 | Agrotis segetum Infected stump rate (%) ([19]; 100 gai/10a): 2.8% | Number (insects/100 stumps) ([11]; 20 gai/10a): 1 insects/100 stumps | Venturia nashicola Severity index ([15]; 50 ppm): 50.6 | Control rate (%) [8]: 12% | Mortality (%) [9]: 70%

O=[N+]([O-])c1ccc(NS(=O)(=O)c2ccc(Cl)c(C(F)(F)F)c2)c(Cl)c1 [flusulfamide]
Plasmodiophora brassicae Control value ([17]; 60 gai/10a): 91 | Agrotis segetum Infected stump rate (%) ([19]; 60 gai/10a): 36.1%

Cc1cc(C(F)(C(F)(F)F)C(F)(F)F)cc(C)c1NC(=O)c1cccc(N(C)C(=O)c2cccnc2)c1F [Compound 1244]
Cnaphalocrocis medinalis Infected leaf rate (%) [2]: 0.25% | Laodelphax striatellus Number of parasitic insects/30 stumps ([7]; 40 days): 72 insects/30 stumps | Laodelphax striatellus Number of parasitic insects/30 stumps ([7]; 60 days): 132 insects/30 stumps

CC(Oc1ccc(Cl)cc1Cl)C(=O)NC(C)(C#N)C(C)C (stereo not drawn) [fenoxanil]
Pyricularia oryzae Control value ([10]; 40 gai/10a, panicle blast, 30 days after spraying): 88 | Number (insects/100 stumps) ([11]; 40 gai/10a): 155 insects/100 stumps

Cc1cc(C(F)(C(F)(F)F)C(F)(F)F)cc(C)c1NC(=O)c1cccc(N(C)C(=O)c2ccc(Cl)nc2)c1F [Compound 1247]
Cnaphalocrocis medinalis Infected leaf rate (%) [2]: 0.25% | Hatchability of larvae (%) [3]: 74% | Control rate (%) [4]: 6% | Mortality (%) [5]: 5% | Laodelphax striatellus Number of parasitic insects/30 stumps ([7]; 40 days): 69 insects/30 stumps | Laodelphax striatellus Number of parasitic insects/30 stumps ([7]; 60 days): 121 insects/30 stumps | Control rate (%) [8]: 10% | Mortality (%) [9]: 65%

Cc1cc(C(F)(C(F)(F)F)C(F)(F)F)cc(C)c1NC(=O)c1cccc(NC(=O)c2ccccc2)c1F [Compound No. 601, N-(2,6-dimethyl-4-heptafluoroisopropyl)phenyl 3-(benzoylamino)-2-fluorobenzamide]
Grapholita molesta Infected fruit rate (%) ([12]; 50 ppm): 2.3% | Number of insects (number/100 stumps) [16]: 2 number/100 stumps | Plasmodiophora brassicae Control value ([17]; 100 gai/10a): 0 | Diaphania indica Mortality (%) [13]: 95% | Pyricularia oryzae Control value ([10]; in vivo): 7 | Rate of infected stumps (%) [18]: 96% | Sphaerotheca fuliginea Control value ([14]; 10 ppm): 0 | Agrotis segetum Infected stump rate (%) ([19]; 100 gai/10a): 2.8% | Number (insects/100 stumps) ([11]; 20 gai/10a): 1 insects/100 stumps | Venturia nashicola Severity index ([15]; 50 ppm): 53.0

CCCc1cc(C(F)(C(F)(F)F)C(F)(F)F)cc(Br)c1NC(=O)c1cccc(NC(=O)c2ccccc2)c1 [Compound 178]
Grapholita molesta Infected fruit rate (%) ([12]; 50 ppm): 3.4% | Plasmodiophora brassicae Control value ([17]; 100 gai/10a): 5 | Diaphania indica Mortality (%) [13]: 90% | Sphaerotheca fuliginea Control value ([14]; 10 ppm): 0 | Agrotis segetum Infected stump rate (%) ([19]; 100 gai/10a): 5.6% | Venturia nashicola Severity index ([15]; 50 ppm): 51.5
